According to BigSolDB 2.1:

O=P(c1ccccc1)(c1ccccc1)c1ccccc1
Conditions | solubility (mole fraction)
in benzene, 293.78 K | 0.055
in benzene, 303.04 K | 0.0747
in benzene, 314.12 K | 0.0963
in benzene, 323.34 K | 0.123
in benzene, 333.45 K | 0.152
in ethyl acetate, 294.54 K | 0.023
in ethyl acetate, 299.09 K | 0.0275
in ethyl acetate, 303.3 K | 0.0305
in ethyl acetate, 308.27 K | 0.0348
in ethyl acetate, 313.72 K | 0.0409
in ethyl acetate, 318.32 K | 0.0496
in ethyl acetate, 323.21 K | 0.0555
in ethyl acetate, 328.65 K | 0.0659
in toluene, 294.42 K | 0.0291
in toluene, 298.74 K | 0.0346
in toluene, 303.15 K | 0.0396
in toluene, 308.36 K | 0.0487
in toluene, 313.53 K | 0.0548
in toluene, 317.97 K | 0.0666
in toluene, 323.13 K | 0.0768
in toluene, 328.42 K | 0.0882
in toluene, 333.77 K | 0.0998
